Laboratory results reported in patent publication US20250368648A1, “MULTI-CYCLIC IRAK AND FLT3 INHIBITING COMPOUNDS AND USES THEREOF” (CHILDREN'S HOSPITAL MEDICAL CENTER, priority 2022, published 2025).

Legend:
Assay type in all cases: biochemical
Conditions in all cases: HotSpot functional assay, isolated kinase enzyme, 33P-ATP
IRAK1 = molecular target: T1, IRAK1 (Homo sapiens, UniProt P51617); assay: RBC HotSpot Kinase Assay, IRAK1
T1 construct: purchased RBC (Reaction Biology) HotSpot assay
Source text: (§1) This assay uses the isolated kinase enzyme. This assay is very useful for determining competition of the inhibitor for ATP and/or substrates and for measuring the kinetics of enzyme inhibition. […] Unlike kinase binding assays that measure competition for ATP, the HotSpot Kinase Assay is a functional assay that measures catalytic activity; as such it measures relative functional potency regardless of the mechanism of enzyme inhibition. This assay uses the form of the various enzymes that are easiest to express, which may not necessarily be the form of the enzyme that exist in the cell. (Sometimes the carboxy terminus has been truncated to aid in expression, or, if it is a receptor kinase, the enzyme itself is isolated from the other parts of the receptor that are involved in regulating kinase activity.)
(§2) The reagent used was as follows: Base Reaction buffer; 20 mM Hepes (pH 7.5), 10 mM MgCl2, 1 mM EGTA, 0.01% Brij35, 0.02 mg/mi BSA, 0.1 mM Na3VO4, 2 mM DTT, 1% DMSO. Required cofactors were added individually to each kinase reaction.
(§3) The reaction procedure was as follows: • 1) Substrates were prepared in freshly prepared Reaction Buffer. • 2) Any required cofactors were delivered to the substrate solution above. • 3) Kinase was delivered into the substrate solution and gently mixed. • 4) Compounds were delivered in 100% DMSO into the kinase reaction mixture by Acoustic technology (Echo550, nanoliter range), followed by incubation for 20 min at room temp. • 5) ^33P-ATP was delivered into the reaction mixture to initiate the reaction. • 6) The mixture was incubated for 2 hours at room temperature. • 7) Kinase activity was detected by P81 filter-binding method.

IRAK4 = molecular target: T2, IRAK4 (Homo sapiens, UniProt Q9NWZ3); assay: RBC HotSpot Kinase Assay, IRAK4; parameters: purchased RBC (Reaction Biology) HotSpot assay
T2 sequence (Q9NWZ3 1-460): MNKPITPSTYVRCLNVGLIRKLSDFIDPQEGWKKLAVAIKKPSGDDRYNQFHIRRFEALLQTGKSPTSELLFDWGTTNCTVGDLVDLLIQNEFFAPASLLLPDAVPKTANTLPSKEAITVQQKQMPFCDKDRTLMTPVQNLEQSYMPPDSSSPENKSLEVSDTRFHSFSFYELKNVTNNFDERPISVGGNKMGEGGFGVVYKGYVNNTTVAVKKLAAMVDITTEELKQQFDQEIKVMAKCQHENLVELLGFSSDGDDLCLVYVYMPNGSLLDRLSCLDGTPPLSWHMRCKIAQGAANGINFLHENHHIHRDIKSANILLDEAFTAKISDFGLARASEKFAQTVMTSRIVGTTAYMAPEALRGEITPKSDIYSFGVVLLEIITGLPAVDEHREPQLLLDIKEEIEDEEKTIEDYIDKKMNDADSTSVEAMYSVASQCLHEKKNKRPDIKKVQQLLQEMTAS
Source text: as §1, §2, §3

FLT3 = molecular target: T3, FLT3 (Homo sapiens, UniProt P36888); assay: RBC HotSpot Kinase Assay, FLT3; parameters: purchased RBC (Reaction Biology) HotSpot assay
T3 sequence (P36888 27-993): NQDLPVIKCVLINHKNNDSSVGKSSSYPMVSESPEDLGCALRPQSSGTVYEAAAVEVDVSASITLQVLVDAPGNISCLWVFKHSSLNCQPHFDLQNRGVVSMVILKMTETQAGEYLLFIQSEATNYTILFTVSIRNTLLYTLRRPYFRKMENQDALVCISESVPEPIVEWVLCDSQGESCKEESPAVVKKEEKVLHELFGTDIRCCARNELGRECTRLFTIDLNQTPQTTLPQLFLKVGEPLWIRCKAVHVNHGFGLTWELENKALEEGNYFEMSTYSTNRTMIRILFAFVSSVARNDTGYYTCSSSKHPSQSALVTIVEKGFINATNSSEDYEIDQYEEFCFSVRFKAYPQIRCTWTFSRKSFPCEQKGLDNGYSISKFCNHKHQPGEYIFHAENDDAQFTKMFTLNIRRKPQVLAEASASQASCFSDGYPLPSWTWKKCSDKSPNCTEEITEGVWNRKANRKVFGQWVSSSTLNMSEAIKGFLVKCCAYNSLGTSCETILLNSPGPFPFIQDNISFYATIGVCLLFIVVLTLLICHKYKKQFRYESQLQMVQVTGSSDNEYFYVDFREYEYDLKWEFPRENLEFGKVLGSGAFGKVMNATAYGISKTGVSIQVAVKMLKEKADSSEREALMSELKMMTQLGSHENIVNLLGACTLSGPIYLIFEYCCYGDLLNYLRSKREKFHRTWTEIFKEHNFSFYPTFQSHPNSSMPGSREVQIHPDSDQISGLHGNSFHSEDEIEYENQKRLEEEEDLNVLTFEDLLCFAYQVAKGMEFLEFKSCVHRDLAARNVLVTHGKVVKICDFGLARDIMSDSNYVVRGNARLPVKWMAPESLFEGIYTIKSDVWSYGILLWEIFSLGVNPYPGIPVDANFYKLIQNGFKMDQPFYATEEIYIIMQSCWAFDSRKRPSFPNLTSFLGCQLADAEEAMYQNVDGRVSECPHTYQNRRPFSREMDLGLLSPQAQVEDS
Source text: as §1, §2, §3

T1 sequence (P51617 whole entry): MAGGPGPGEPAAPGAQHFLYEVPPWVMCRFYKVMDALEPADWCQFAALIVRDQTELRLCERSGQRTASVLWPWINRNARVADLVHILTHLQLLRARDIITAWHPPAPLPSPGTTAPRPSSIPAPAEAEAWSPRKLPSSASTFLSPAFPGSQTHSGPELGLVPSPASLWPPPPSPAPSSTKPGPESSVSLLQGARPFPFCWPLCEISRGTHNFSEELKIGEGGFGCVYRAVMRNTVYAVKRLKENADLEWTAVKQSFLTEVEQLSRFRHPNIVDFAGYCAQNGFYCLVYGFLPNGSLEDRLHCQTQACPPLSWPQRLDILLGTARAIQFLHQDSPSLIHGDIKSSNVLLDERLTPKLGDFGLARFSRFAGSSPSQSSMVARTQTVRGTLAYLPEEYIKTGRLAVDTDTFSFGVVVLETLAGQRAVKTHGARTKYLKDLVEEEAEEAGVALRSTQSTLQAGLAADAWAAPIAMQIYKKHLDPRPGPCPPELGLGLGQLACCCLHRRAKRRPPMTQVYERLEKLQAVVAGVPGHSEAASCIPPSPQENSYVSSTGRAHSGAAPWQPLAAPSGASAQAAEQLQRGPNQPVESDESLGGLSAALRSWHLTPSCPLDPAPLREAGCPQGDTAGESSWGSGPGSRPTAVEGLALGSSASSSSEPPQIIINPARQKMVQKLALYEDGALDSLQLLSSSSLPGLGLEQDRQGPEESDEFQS

| Compound | IC50 (IRAK1) [nM] | IC50 (IRAK4) [nM] | IC50 (FLT3) [nM] |
| --- | --- | --- | --- |
| COc1cc2ncc(-c3nc(N[C@H]4CNC[C@@H]4F)c(F)cc3F)n2nc1C1CC(C)(C)C1 [Compound 8a, 6-(6-(3,3-dimethylcyclobutyl)-7-methoxyimidazo[1,2-b]pyridazin-3-yl)-3,5-difluoro-N-((3S,4S)-4-fluoropyrrolidin-3-yl)pyridin-2-amine] | 190 | 9 | 0.6 |
| COc1cc2ncc(-c3nc(N[C@H]4CNCC[C@@H]4F)c(F)cc3F)n2nc1C1CC(C)(C)C1 [Compound 9a, 6-(6-(3,3-dimethylcyclobutyl)-7-methoxyimidazo[1,2-b]pyridazin-3-yl)-3,5-difluoro-N-((3S,4S)-4-fluoropiperidin-3-yl)pyridin-2-amine] | 74 | 26 | < 0.5 |
| COc1cc2ncc(-c3nc(N[C@@H]4CCCNC4)c(F)cc3F)n2nc1C1CC2(CCC2)C1 [Compound 11a, (R)-3,5-difluoro-6-(7-methoxy-6-(spiro[3.3]heptan-2-yl)imidazo[1,2-b]pyridazin-3-yl)-N-(piperidin-3-yl)pyridin-2-amine] | 30 | 16 | < 0.5 |
| COc1cc2ncc(-c3nc(N[C@H]4CNCC[C@@H]4F)c(F)cc3F)n2nc1N1CCCC1=O [Compound 22a, 1-(3-(3,5-difluoro-6-(((3S,4S)-4-fluoropiperidin-3-yl)amino)pyridin-2-yl)-7-methoxyimidazo[1,2-b]pyridazin-6-yl)pyrrolidin-2-one] | 55 | 9 | < 0.5 |
| COc1cc2ncc(-c3nc(N[C@@H]4CCCNC4)c(F)cc3F)n2nc1N1CCCC1=O [Compound 23a, (R)-1-(3-(3,5-difluoro-6-(piperidin-3-ylamino)pyridin-2-yl)-7-methoxyimidazo[1,2-b]pyridazin-6-yl)pyrrolidin-2-one] | 348 | 48 | 2 |
| COc1cc2ncc(-c3nc(N[C@H]4CNC[C@@H]4F)c(F)cc3F)n2nc1N1CCCC1=O [Compound 24a, 1-(3-(3,5-difluoro-6-(((3S,4S)-4-fluoropyrrolidin-3-yl)amino)pyridin-2-yl)-7-methoxyimidazo[1,2-b]pyridazin-6-yl)pyrrolidin-2-one] | 186 | 11 | 1 |
| COc1cc2ncc(-c3nc(N[C@@H]4CCCNC4)ccc3C#N)n2nc1C1CC1 [Compound 30a, (R)-2-(6-cyclopropyl-7-methoxyimidazo[1,2-b]pyridazin-3-yl)-6-(piperidin-3-ylamino)nicotinonitrile] | 2290 | 110 | 48 |
| COc1cc2ncc(-c3nc(N[C@H]4CNCC[C@@H]4F)ccc3C#N)n2nc1C1CC1 [Compound 31a, 2-(6-cyclopropyl-7-methoxyimidazo[1,2-b]pyridazin-3-yl)-6-(((3S,4S)-4-fluoropiperidin-3-yl)amino)nicotinonitrile] | 1110 | 10 | 43 |
| COc1ccc(N[C@@H]2CCCNC2)nc1-c1cnc2cc(OC)c(C3CC3)nn12 [Compound 32a, (R)-6-(6-cyclopropyl-7-methoxyimidazo[1,2-b]pyridazin-3-yl)-5-methoxy-N-(piperidin-3-yl)pyridin-2-amine] | > 10000 | 853 | 80 |
| COc1ccc(-c2cnc3cc(OC)c(C4CC4)nn23)nc1N[C@H]1CNC[C@@H]1F [Compound 33a, 6-(6-cyclopropyl-7-methoxyimidazo[1,2-b]pyridazin-3-yl)-N-((3S,4S)-4-fluoropyrrolidin-3-yl)-3-methoxypyridin-2-amine] | > 10000 | 47 | < 0.5 |
| COc1ccc(-c2cnc3cc(OC)c(C4CC4)nn23)nc1N[C@@H]1CCCNC1 [Compound 34a, (R)-6-(6-cyclopropyl-7-methoxyimidazo[1,2-b]pyridazin-3-yl)-3-methoxy-N-(piperidin-3-yl)pyridin-2-amine] | > 10000 | 202 | < 0.5 |

The next compounds have a lower IC50 (IRAK1) than those just listed; values first:

| IC50 (IRAK1) [nM] | IC50 (IRAK4) [nM] | IC50 (FLT3) [nM] | Compound |
| --- | --- | --- | --- |
| 17 | 3 | < 0.5 | COc1cc2ncc(-c3nc(N[C@H]4CNC[C@@H]4F)c(F)cc3F)n2nc1C1CCCCC1 [Compound 19a, 6-(6-cyclohexyl-7-methoxyimidazo[1,2-b]pyridazin-3-yl)-3,5-difluoro-N-((3S,4S)-4-fluoropyrrolidin-3-yl)pyridin-2-amine] |
| 7 | 2 | < 0.5 | COc1cc2ncc(-c3nc(N[C@H]4CNC[C@@H]4F)c(F)cc3F)n2nc1C1CCCC1 [Compound 16a, 6-(6-cyclopentyl-7-methoxyimidazo[1,2-b]pyridazin-3-yl)-3,5-difluoro-N-((3S,4S)-4-fluoropyrrolidin-3-yl)pyridin-2-amine] |
| 7 | 2 | < 0.5 | COc1cc2ncc(-c3nc(N[C@@H]4CCCNC4)c(F)cc3F)n2nc1C1CCCC1 [Compound 17a, (R)-6-(6-cyclopentyl-7-methoxyimidazo[1,2-b]pyridazin-3-yl)-3,5-difluoro-N-(piperidin-3-yl)pyridin-2-amine] |
| 6 | 6 | < 0.5 | COc1cc2ncc(-c3nc(N[C@@H]4CCCNC4)c(F)cc3F)n2nc1C1CCCCC1 [Compound 20a, (R)-6-(6-cyclohexyl-7-methoxyimidazo[1,2-b]pyridazin-3-yl)-3,5-difluoro-N-(piperidin-3-yl)pyridin-2-amine] |
| 5 | 21 | < 0.5 | COc1cc2ncc(-c3nc(N[C@H]4CNCC[C@@H]4F)c(F)cc3F)n2nc1C1CCCCC1 [Compound 21a, 6-(6-cyclohexyl-7-methoxyimidazo[1,2-b]pyridazin-3-yl)-3,5-difluoro-N-((3S,4S)-4-fluoropiperidin-3-yl)pyridin-2-amine] |
| 5 | < 0.5 | < 0.5 | COc1cc2ncc(-c3ccc(C#N)c(N[C@H]4CNC[C@@H]4F)n3)n2nc1C1CC1 [Compound 27a, 6-(6-cyclopropyl-7-methoxyimidazo[1,2-b]pyridazin-3-yl)-2-(((3S,4S)-4-fluoropyrrolidin-3-yl)amino) nicotinonitrile] |
| 3 | 0.6 | < 0.5 | COc1cc2ncc(-c3nc(N[C@H]4CNCC[C@@H]4F)c(F)cc3F)n2nc1C1CCCC1 [Compound 18a, 6-(6-cyclopentyl-7-methoxyimidazo[1,2-b]pyridazin-3-yl)-3,5-difluoro-N-((3S,4S)-4-fluoropiperidin-3-yl)pyridin-2-amine] |
